Key:
[1] = biological target: p70S6Kb/RPS6KB2 (Homo sapiens, UniProt Q9UBS0); assay: biochemical; conditions: read-out: % enzyme activity, 1 μM; Run 1, Run 2
[2] = biological target: ZIPK/DAPK3 (Homo sapiens, UniProt O43293); assay: biochemical; conditions: read-out: % enzyme activity, 1 μM; Run 1, Run 2
[3] = biological target: CDK2/cyclin E (Homo sapiens, UniProt P24941); conditions: 1 μM; Run 1, Run 2
[4] = biological target: T1, MYO3b (Homo sapiens, UniProt Q8WXR4); conditions: 1 μM; Run 1, Run 2
T1 sequence (Q8WXR4 1-1341): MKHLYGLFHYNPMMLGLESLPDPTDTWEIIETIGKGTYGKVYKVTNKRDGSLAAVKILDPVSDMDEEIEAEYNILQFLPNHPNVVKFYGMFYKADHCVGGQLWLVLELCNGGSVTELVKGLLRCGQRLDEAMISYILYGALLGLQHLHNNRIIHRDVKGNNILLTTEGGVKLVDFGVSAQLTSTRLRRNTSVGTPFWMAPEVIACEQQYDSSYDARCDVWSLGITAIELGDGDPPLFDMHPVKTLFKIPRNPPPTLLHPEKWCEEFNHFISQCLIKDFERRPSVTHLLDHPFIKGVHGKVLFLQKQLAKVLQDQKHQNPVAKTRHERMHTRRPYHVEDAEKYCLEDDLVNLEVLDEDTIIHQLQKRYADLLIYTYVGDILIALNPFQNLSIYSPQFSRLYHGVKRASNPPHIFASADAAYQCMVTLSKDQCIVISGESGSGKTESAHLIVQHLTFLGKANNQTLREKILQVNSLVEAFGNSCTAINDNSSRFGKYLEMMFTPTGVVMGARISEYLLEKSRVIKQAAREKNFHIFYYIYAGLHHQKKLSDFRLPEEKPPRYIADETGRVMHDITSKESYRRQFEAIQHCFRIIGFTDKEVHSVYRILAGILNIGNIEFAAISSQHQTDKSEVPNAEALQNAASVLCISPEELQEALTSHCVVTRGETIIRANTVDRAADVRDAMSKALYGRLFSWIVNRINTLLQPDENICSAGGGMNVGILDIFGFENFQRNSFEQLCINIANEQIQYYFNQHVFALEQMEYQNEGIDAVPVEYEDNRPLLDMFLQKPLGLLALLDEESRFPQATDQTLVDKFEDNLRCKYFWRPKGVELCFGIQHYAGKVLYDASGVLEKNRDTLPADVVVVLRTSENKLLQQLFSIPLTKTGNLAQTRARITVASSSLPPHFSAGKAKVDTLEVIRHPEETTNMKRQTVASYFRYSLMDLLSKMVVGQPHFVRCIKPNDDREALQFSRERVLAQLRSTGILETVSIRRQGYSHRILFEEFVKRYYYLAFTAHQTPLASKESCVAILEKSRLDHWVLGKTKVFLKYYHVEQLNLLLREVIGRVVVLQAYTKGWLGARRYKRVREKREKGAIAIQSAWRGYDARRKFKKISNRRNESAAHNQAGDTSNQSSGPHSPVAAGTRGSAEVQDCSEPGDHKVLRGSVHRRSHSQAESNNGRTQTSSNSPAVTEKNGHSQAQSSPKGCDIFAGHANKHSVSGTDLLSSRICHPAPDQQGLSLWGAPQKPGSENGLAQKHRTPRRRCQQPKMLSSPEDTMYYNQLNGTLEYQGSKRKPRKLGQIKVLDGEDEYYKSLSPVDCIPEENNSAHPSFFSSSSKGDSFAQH

[5] = biological target: T2, ALK5/TGFBR1 (Homo sapiens, UniProt P36897); assay: 375-member kinase panel; format: biochemical; conditions: Run 1, Run 2; for % enzyme activity: 1 μM; for remaining activity at 1 µM: read-out: % enzyme activity, 1 μM
T2 construct: purchased Reaction Biology Corporation
T2 sequence (P36897 34-503): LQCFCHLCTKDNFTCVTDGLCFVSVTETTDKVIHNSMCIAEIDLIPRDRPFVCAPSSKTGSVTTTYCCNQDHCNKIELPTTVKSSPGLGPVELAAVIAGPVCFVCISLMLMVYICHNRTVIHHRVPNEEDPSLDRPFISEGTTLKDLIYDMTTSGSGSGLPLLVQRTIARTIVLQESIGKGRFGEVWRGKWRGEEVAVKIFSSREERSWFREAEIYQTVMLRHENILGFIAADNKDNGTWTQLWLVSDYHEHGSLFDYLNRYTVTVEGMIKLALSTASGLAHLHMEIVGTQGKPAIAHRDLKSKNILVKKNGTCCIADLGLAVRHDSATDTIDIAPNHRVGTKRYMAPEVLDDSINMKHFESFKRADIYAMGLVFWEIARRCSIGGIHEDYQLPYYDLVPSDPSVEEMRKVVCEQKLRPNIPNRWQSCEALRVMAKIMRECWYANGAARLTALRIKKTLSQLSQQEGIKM

[6] = biological target: AKT1 (Homo sapiens, UniProt P31749); conditions: 1 μM; Run 1, Run 2
[7] = biological target: JNK2 (Homo sapiens, UniProt P45984); assay: biochemical; conditions: read-out: % enzyme activity, 1 μM; Run 1, Run 2
JNK2, sequence (P45984 whole entry): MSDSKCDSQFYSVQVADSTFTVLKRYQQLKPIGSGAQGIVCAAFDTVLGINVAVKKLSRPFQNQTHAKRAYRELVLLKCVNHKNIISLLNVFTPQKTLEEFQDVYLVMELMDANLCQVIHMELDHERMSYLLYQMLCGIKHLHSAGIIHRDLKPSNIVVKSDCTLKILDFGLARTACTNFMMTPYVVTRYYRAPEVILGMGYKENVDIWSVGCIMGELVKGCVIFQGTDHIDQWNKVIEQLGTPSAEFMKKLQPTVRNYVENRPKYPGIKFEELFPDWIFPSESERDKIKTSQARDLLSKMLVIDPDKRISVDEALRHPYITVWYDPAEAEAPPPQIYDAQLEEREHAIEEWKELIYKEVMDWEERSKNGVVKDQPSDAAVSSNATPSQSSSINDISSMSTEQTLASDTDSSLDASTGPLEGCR

ZIPK/DAPK3, sequence (O43293 whole entry): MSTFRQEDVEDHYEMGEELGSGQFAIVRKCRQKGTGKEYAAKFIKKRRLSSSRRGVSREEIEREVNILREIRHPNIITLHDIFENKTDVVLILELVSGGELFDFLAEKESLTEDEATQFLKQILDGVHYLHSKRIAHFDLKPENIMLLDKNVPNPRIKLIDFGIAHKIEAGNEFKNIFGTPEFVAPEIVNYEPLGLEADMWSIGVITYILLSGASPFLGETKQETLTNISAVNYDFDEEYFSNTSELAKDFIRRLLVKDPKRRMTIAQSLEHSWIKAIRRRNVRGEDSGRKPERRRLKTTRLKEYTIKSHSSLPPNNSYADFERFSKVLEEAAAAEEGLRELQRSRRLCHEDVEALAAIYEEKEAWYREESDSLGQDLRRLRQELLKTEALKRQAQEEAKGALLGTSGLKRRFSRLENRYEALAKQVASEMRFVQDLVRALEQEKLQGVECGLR
AKT1, sequence (P31749 whole entry): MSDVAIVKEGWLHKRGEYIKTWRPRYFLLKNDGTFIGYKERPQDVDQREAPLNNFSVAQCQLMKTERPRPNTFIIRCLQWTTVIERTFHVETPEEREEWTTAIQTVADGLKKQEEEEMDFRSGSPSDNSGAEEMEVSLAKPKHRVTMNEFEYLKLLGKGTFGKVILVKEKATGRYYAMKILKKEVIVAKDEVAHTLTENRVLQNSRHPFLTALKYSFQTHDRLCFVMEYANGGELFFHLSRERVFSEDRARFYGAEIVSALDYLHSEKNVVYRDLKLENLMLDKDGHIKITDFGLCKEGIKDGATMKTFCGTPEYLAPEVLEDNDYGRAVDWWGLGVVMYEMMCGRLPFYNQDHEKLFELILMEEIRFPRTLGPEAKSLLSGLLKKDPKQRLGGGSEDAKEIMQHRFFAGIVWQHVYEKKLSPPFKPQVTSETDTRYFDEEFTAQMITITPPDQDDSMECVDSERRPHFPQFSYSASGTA
p70S6Kb/RPS6KB2, sequence (Q9UBS0 whole entry): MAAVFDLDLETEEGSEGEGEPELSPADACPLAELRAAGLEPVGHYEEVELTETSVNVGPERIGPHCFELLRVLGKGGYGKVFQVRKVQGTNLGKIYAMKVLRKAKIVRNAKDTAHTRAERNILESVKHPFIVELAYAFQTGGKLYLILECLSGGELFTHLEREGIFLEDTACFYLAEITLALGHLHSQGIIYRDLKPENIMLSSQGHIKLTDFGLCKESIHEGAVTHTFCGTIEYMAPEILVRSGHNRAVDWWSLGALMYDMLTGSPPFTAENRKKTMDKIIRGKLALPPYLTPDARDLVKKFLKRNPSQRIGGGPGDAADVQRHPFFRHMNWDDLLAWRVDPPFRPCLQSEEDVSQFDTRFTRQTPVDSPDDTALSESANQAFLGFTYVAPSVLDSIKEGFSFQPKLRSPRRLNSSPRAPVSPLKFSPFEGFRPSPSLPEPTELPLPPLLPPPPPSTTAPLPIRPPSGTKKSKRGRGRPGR

Row | SMILES | remaining activity at 1 µM [1] [%] | remaining activity at 1 µM [2] [%] | % enzyme activity [3] [%] | % enzyme activity [4] [%] | % enzyme activity [5] [%] | remaining activity at 1 µM [5] [%] | % enzyme activity [6] [%] | remaining activity at 1 µM [7] [%]
1 | COc1cc(-c2cncc(-c3ccc(N4CCN(C)CC4)cc3)c2C)cc(F)c1C(N)=O [Compound 26a, 2-Fluoro-6-methoxy-4-(4-methyl-5-(4-(4-methylpiperazin-1-yl)phenyl)pyridin-3-yl)benzamide] | 97.3 | 104 | 104.52 | 81.31 | 82.28 | 82.5 | 102.39 | 93.4
2 | COc1cc(-c2cncc(-c3ccc(N4C[C@@H](C)N(C)[C@@H](C)C4)cc3)c2C)cc(F)c1C(N)=O [Compound 26c, 2-Fluoro-6-methoxy-4-(4-methyl-5-(4-((3R,5S)-3,4,5-trimethylpiperazin-1-yl)phenyl)pyridin-3-yl)benzamide] | 102 | 104 | 102.10 | 85.13 | 96.60 | 97.2 | 104.50 | 94.7

Reference: article PMC8213057, “Targeting ALK2: An Open Science Approach to Developing Therapeutics for the Treatment of Diffuse Intrinsic Pontine Glioma” (Journal of Medicinal Chemistry, 2020)
